What was measured:
[1] = system: HD-MSNs; assay: HD-MSN death (SYTOX assay); survival of striatal neurons; format: cell-based, human; details: treated from PID14 every four days for 16 days
Description: (§1) FIG. 1A-FIG. 1E is an exemplary embodiment showing autophagy activator rescues HD-MSNs from degeneration in accordance with the present disclosure. FIG. 1A depicts the chemical structure of Ex 3. FIG. 1B includes a representative immunoblot (left) for steady state levels of α1-antitrypsin Z variant (ATZ) and β-actin in the HTO/Z cell line model of α1-antitrypsin deficiency after 24 hr treatment with DMSO alone or Ex 3 in DMSO at 0.5 and 2.5 μM and a bar graph showing the normalized intensity (right) calculated from immunoblot images for 0.5 μM versus DMSO control (Individual data plotted, n=4 biological replicates; *p=0.003 by t-test; mean+/−s.e.m). FIG. 1C includes an immunoblot for p62 and GAPDH in HD-MSNs treated with DMSO or 0.5 μM Ex 3 at PID26 (left) and a bar graph showing intensity values were normalized by GAPDH intensities and the relative fold change over DMSO condition was calculated from immunoblot images of three independent HD-MSN lines (right). Each dot represents reprogrammed MSNs from three independent HD-MSN lines. […] FIG. 1E includes example photographs (top) of HD-MSNs treated with DMSO or 0.5 μM Ex 3 (PID 30) expressing the tandem monomeric RFP-GFP-LC3 reporter and a bar graph (bottom) showing quantification of autophagosome (i.e., RFP+, GFP+ puncta) and autolysosome (i.e., RFP+, GFP− puncta) compartments from three independent HD-MSNs. […]

[2] = system: HD-MSNs expressing the RFP-GFP-LC3 reporter; assay: Tandem RFP-GFP-LC3 reporter in HD-MSNs; format: cell-based, human; details: 0.5 μM, PID30, vs DMSO
Description: as §1

[3] = Liver microsomal stability, mouse; format: in vitro ADME; details: mouse liver microsomes; read-out: LM stability Mouse t ½
From the text: (§2) As described herein, continued lead optimization afforded potent quinolones.

[4] = system: HD-MSNs; assay: Caspase 3/7 activation and Annexin V signal in HD-MSNs; format: cell-based, human; details: HD-MSNs at PID30; 0.125, 0.25 or 0.5 uM
Description: as §1

[5] = system: mHTT inclusion bodies in HD-MSNs; assay: HTT inclusion bodies in HD-MSNs; format: cell-based, human; details: 0.5 μM, PID30, vs DMSO
Description: as §1

[6] = system: p62/SQSTM1 in HD-MSNs; assay: p62 immunoblot in HD-MSNs; format: cell-based, human; details: 0.5 μM, PID26, vs DMSO
Description: as §1

[7] = system: HD-MSNs; assay: Autophagic vacuoles by CYTO-ID green in HD-MSNs; format: cell-based, human; details: 0.5 μM, PID26, vs DMSO
Description: as §1

[8] = Liver microsomal stability, human; format: in vitro ADME; details: human liver microsomes; read-out: LM stability Human t ½
From the text: as §2

Row | half-life [3] [h] | Annexin V signal [4] | activated Caspase 3/7 signal [4] | half-life [8] [h] | Structure (SMILES) | HD-MSN death (SYTOX-positive cells) [1] | average number of autophagosomes and autolysosomes [2] | number of mHTT inclusion bodies [5] | p62/SQSTM1 protein levels [6] | number of autophagic vacuoles (CYTO-ID signals) [7]
1 | 0.07 | significant reduction | significant reduction |  | O=c1ccc2c(Cl)cc(Cl)cc2[nH]1 [Ex 3, 5,7-dichloro-1H-quinolin-2-one] | significant reduction in HD-MSN death in a dose-dependent manner | increased the average number of autophagosomes and autolysosomes | reduced the number of mHTT inclusion bodies | decreased p62/SQSTM1 protein levels | increased the number of autophagic vacuoles
2 | > 2.42 |  |  | > 2.42 | O=c1ccc2c(C(F)(F)F)c(-c3ccc(Cl)cn3)ccc2[nH]1 [Ex 97, 6-(5-chloropyridin-2-yl)-5-(trifluoromethyl) quinolin-2 (1H)-one] |  |  |  |  | 
